Values of other authors as cited in patent US20260232695A1, “ORAL FORMULATIONS OF ABIRATERONE ACETATE AND METHOD OF MANUFACTURING THEREOF” (BDR PHARMACEUTICALS INTERNATIONAL PRIVATE LIMITED, priority 2022, published 2026).

Details: poor solubility in water and lower lipid permeability

BCS class: Class IV
Structure (SMILES): CC(=O)O[C@H]1CC[C@@]2(C)C(=CC[C@@H]3[C@@H]2CC[C@]2(C)C(c4cccnc4)=CC[C@@H]32)C1 [Abiraterone Acetate, 17-(pyridin-3-yl)androsta-5,16-dien-3β-yl acetate]
